For 1 cell line, relative viability results are on record in the supplement of paper PMC10307832.

Experiment in all cases: relative viability (nuclei count vs DMSO), 5 days (fraction); higher = more cells survive
Compound in the experiment “Doramapimod + Navitoclax”: Cc1ccc(-n2nc(C(C)(C)C)cc2NC(=O)Nc2ccc(OCCN3CCOCC3)c3ccccc23)cc1 [Doramapimod] + CC1(C)CCC(c2ccc(Cl)cc2)=C(CN2CCN(c3ccc(C(=O)NS(=O)(=O)c4ccc(N[C@H](CCN5CCOCC5)CSc5ccccc5)c(S(=O)(=O)C(F)(F)F)c4)cc3)CC2)C1 [Navitoclax] (partner 0.5 µM)
The procedure, abridged:
(§1)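 A single step with final 0.05% Triton X-100, 1% formaldehyde and 1 ug/ml Hoechst fixed the cells and stained nuclei 5 days after treatment. Lung cancer cell lines in 1536-well plates had been treated by pin tool the day after seeding with one drug alone or a fixed anchor-drug dose plus five library-drug doses (not always all listed) in √10 steps, and nuclei were counted on 4× images. Relative viability is the ratio of nuclei in treated wells to nuclei in vehicle wells, taken as the median of duplicate plates.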

Compound in the experiment “RAF265 + Lapatinib”: Cn1c(Nc2ccc(C(F)(F)F)cc2)nc2cc(Oc3ccnc(-c4ncc(C(F)(F)F)[nH]4)c3)ccc21 [RAF265] + CS(=O)(=O)CCNCc1ccc(-c2ccc3ncnc(Nc4ccc(OCc5cccc(F)c5)c(Cl)c4)c3c2)o1 [Lapatinib] (partner 2 µM)
In short, it runs like this:
as §1

Compound in the experiment “RAF265 + Trametinib”: Cn1c(Nc2ccc(C(F)(F)F)cc2)nc2cc(Oc3ccnc(-c4ncc(C(F)(F)F)[nH]4)c3)ccc21 [RAF265] + CC(=O)Nc1cccc(-n2c(=O)n(C3CC3)c(=O)c3c(Nc4ccc(I)cc4F)n(C)c(=O)c(C)c32)c1 [Trametinib] (partner 0.02 µM)
The procedure, abridged: as §1

Compound in the experiment “IPA-3 + Tozasertib”: C1=CC=C2C(=C1)C=CC(=C2SSC3=C(C=CC4=CC=CC=C43)O)O [IPA-3] + Cc1cc(Nc2cc(N3CCN(C)CC3)nc(Sc3ccc(NC(=O)C4CC4)cc3)n2)n[nH]1 [Tozasertib] (partner 0.1 µM)
In short, it runs like this:
as §1

For the cell line UMC-11, the relative viability in the experiment with Doramapimod + Navitoclax (first compound 0.02 µM) turned out to be 0.304; with Doramapimod + Navitoclax (first compound 0.06325 µM) it was 0.275; with Doramapimod + Navitoclax (first compound 0.2 µM), 0.323; with Doramapimod + Navitoclax (first compound 0.6325 µM), 0.344; with Doramapimod + Navitoclax (first compound 2 µM), 0.271; with RAF265 + Lapatinib (first compound 0.01 µM), 0.97. The relative viability in the experiment with RAF265 + Lapatinib (first compound 0.03162 µM) stood at 0.859; in the experiment with RAF265 + Lapatinib (first compound 0.1 µM), 0.968; with RAF265 + Lapatinib (first compound 0.3162 µM), 1.07; in the experiment with RAF265 + Lapatinib (first compound 1 µM), 0.776; with RAF265 + Trametinib (first compound 0.01 µM), 0.749; with RAF265 + Trametinib (first compound 0.03162 µM), 0.634. Also, the relative viability with RAF265 + Trametinib (first compound 0.1 µM) amounted to 0.748; with RAF265 + Trametinib (first compound 0.3162 µM), 0.855; with RAF265 + Trametinib (first compound 1 µM), 0.649; with IPA-3 + Tozasertib (first compound 0.2 µM), 0.202; in the experiment with IPA-3 + Tozasertib (first compound 0.6325 µM) it was 0.205; with IPA-3 + Tozasertib (first compound 2 µM) it was 0.215. Besides, the results for the relative viability with IPA-3 + Tozasertib (first compound 6.325 µM) and with IPA-3 + Tozasertib (first compound 20 µM) were 0.224 and 0.225, respectively.
